From ChEMBL document CHEMBL4130537, “Houttuynoid M, an Anti-HSV Active Houttuynoid from Houttuynia cordata Featuring a Bis-houttuynin Chain Tethered to a Flavonoid Core” (J Nat Prod, 2017)

What was measured:
Human alphaherpesvirus 1 = assay: Antiviral activity against HSV1/F infected in African green monkey Vero cells assessed as inhibition of plaque formation after 24 hrs by crystal violet staining-based assay; type: functional, organism-based; settings: Human alphaherpesvirus 1, strain F
[1] = Cytotoxicity against African green monkey Vero cells assessed as decrease in cell viability after 24 hrs by CellTiter-Glo luminescent assay; type: cell-based; settings: chlorocebus sabaeus
[2] = Selectivity index, ratio of CC50 for African green monkey Vero cells to IC50 for HSV1/F; type: toxicity; settings: read-out: Ratio CC50/IC50

Row | IC50 (Human alphaherpesvirus 1) [µM] | Compound | CC50 at 24 h [1] [µM] | selectivity ratio [2]
1 | 17.7 | CCCCCCCCCC(=O)/C=C/c1c(CCCCCCCCC)oc2c(O)ccc(-c3oc4cc(O)cc(O)c4c(=O)c3O[C@@H]3O[C@H](CO)[C@H](O)[C@H](O)[C@H]3O)c12 | > 200 | > 11.3
2 | 12.4 | CCCCCCCCCc1oc2c(O)ccc(-c3oc4cc(O)cc(O)c4c(=O)c3O[C@@H]3O[C@H](CO)[C@H](O)[C@H](O)[C@H]3O)c2c1C=O | > 200 | > 16.1
3 | 0.15 | Nc1nc2c(ncn2COCCO)c(=O)[nH]1 [ACYCLOVIR] | > 200 | > 1330
